The structures appear in SMILES notation. “Also recorded” adds a separate entry of the source. Read-outs that look alike come from different tables or passages of the source.

The subject of series [1] is human platelets. As to the kind of experiment: Inhibition of U46619-induced human platelet aggregation. The series is classed as cell-based. The note with it: for IC50: Homo sapiens, Platelet, 1 min. The procedure: Platelet rich plasma was prepared from four healthy, normal volunteers using standard techniques.
Platelets were aggregated with U46619 (0.5 to 1.0 μM) to produce an
average % aggregation at one minute of 61.3 ± 3.1. The ID50 value
were calculated based on the inhibition of U46619 induced aggregation one
minute after its addition.
Platelets were aggregated with U46619 (0.09 to 0.65 μM) to produce an
average % aggregation at one minute of 47 ± 3. The ID50 values
The potency of PTA-OH and PTA-OM for antagonism of U46619 induced human platelet aggregation was determined as described above.

The test system of series [2] is canine saphenous veins. Kind of series: Antagonism of vascular smooth muscle contraction in canine saphenous veins. The class given is cell-based.
The test system of series [3] is endotoxic shock. Kind of series: Protection against endotoxic shock (Salmonella endotoxin). The class given is in vivo, young male Long-Evans rats. An excerpt: Based on the protective biological response observed and the absence of change in plasma thromboxane levels, it is concluded that trans-13 APT is a thromboxane receptor antagonist.
For series [4], the system named is platelet aggregation. As to the kind of experiment: U46619 and arachidonic acid-induced platelet aggregation. The class given is cell-based, human. The protocol:
Compound A was prepared in a manner analogous to 13 APA itself, i.e., by borohydride reduction of the Schiff base obtained from the reaction of tyramine and ethyl-2-oxo-cyclopentane-heptanoate. This reaction produces about equal amounts of the cis and trans ethyl esters, which were separated on preparative silica gel TLC and subsequently hydrolyzed to the free acids by refluxing in aqueous NaOH.

Series [5] concerns platelet aggregation. The following applies: 13-APA itself, stated as background for comparison; cited from earlier work.
The nature of series [6]: Solubility. The series is classed as physicochemical.
Setting [7] is: Table 2, U46619 0.09 to 0.65 μM, average % aggregation at one minute 47 ± 3, indomethacin 10 μM, one minute preincubation, read-out: ID50 (the source's name).
[8] abbreviates: pinane analogs, determined as described above, read-out: ID50 (antagonism of U46619 induced human platelet aggregation).
Setting [9] is: Table I, U46619 0.5 to 1.0 μM, average % aggregation at one minute 61.3 ± 3.1, indomethacin 10 μM, one minute preincubation, platelet rich plasma, read-out: ID50 (the source's name).
The mark [10] stands for this setting: 30 mg/kg i.p., vs vehicle pretreated animals.

With `O=C(O)CCCCCC[C@H]1CCC[C@H]1NCC(O)c1ccc(O)c(I)c1` (relative stereo) [13-cis-iodo APO], the IC50 in series [1] (setting [7]) turned out to be 9.8 ± 1.3 µM. With `COc1ccc(CC(O)CNC2CC3CC(C2C/C=C\CCCC(=O)O)C3(C)C)cc1` (stereo not drawn) [PTA-OM, 13-aza-16-(p-methoxyphenyl) pinane TxA2], the IC50 in series [1] (setting [8]) turned out to be 1.56 ± 0.35 µM. Further, the “relative potency as antagonist of vascular smooth muscle contraction” value in series [2] was “more potent than PTA-OH”.

Turning to `O=C(O)CCCCCC[C@@H]1CCC[C@H]1NCCc1ccc(O)cc1` (relative stereo) [Compound 13-trans-APT, 7-(2-p-hydroxphenethylamino-cyclopentyl)-heptanoic acid], the IC50 in series [1] (setting [9]) worked out at 9.9 ± 1.7 µM. In addition, in series [3] (30 mg/kg i.p., 30 minutes and four hours after endotoxin, vs vehicle), the “plasma thromboxane B2 levels” value is given as “elevated to the same degree”. In addition, in series [3] (setting [10]), the 6-keto-PGF1α levels entry was “significantly lower”; the “endotoxic shock as measured by hypoglycemia, thrombocytopenia and tissue infarct effects” value is recorded as “less subject to endotoxic shock”. In addition, the “protection against endotoxic shock” value in series [3] (30 mg/kg, intraperitoneal pretreatment, endotoxin intravenously) was “protected against endotoxic shock”. Also, the “protection against pathophysiologic sequelae of S. enteritidis endotoxemia” value in series [3] (30 mg/kg, rats) is on record as “effective in protecting rats”. Consider `CCCCCCCN[C@@H]1CCC[C@H]1CCCCCCC(=O)O` (relative stereo) [13-trans-azaprostanoic acid, reference compound], for which the IC50 in series [1] (setting [9]) amounted to 13.6 ± 1.9 µM. Turning to `O=C(O)CCCCCCC1CCCC1NCCc1ccc(O)cc1` (stereo not drawn) [Compound A, 7-(2-p-hydroxyphenethylamino-cyclopenthyl)-heptanoic acid], the “activity and relative potency of isomers in platelet aggregation” value in series [4] was “the two isomers were active, with the trans more potent than the cis; also recorded: significantly more potent than the parent 13-APA”. `CCCCCCCN[C@H]1CCC[C@@H]1CCCCCCC(=O)O` [Compound 13-APA, 13-Azaprostanoic acid]: the “relative potency of isomers” value in series [5] is recorded as “much more potent as the trans form”.

As for `O=C(O)CCCCCC[C@@H]1CCC[C@@H]1NCCc1ccc(O)cc1` (relative stereo) [Compound 13-cis-APT, 7-(2-p-hydroxphenethylamino-cyclopentyl)-heptanoic acid], the IC50 in series [1] (setting [9]) came out at 17.6 ± 4.4 µM. Take `CC1(C)C2CC(NCC(O)Cc3ccc(O)cc3)C(C/C=C\CCCC(=O)O)C1C2` (stereo not drawn) [PTA-OH, 13-aza-16-(p-hydroxyphenyl) pinane TxA2]: in series [1], the “relative potency as inhibitor of human platelet aggregation” value was “more potent than 13-aza-16-(p-methoxyphenyl) pinane TxA2 (PTA-OM)”. The IC50 in series [1] (setting [8]) worked out at 0.52 ± 0.07 µM. With `O=C(O)CCCCCC[C@@H]1CCC[C@H]1NCC(O)c1ccc(O)cc1` (stereo partly drawn) [Compound 13-trans-APO, 7-(2-p-hydroxyphenylethanolamino-cyclopentyl)-heptanoic acid], the IC50 in series [1] (setting [9]) worked out at 8.3 ± 1.4 µM. Besides, the solubility in ethanol entry in series [6] is “practically insoluble”. As to `O=C(O)CCCCCC[C@@H]1CCC[C@@H]1NCC(O)c1ccc(O)cc1` (stereo partly drawn) [Compound 13-cis-APO, 7-(2-p-hydroxyphenylethanolamino-cyclopentyl)-heptanoic acid], the IC50 in series [1] (setting [7]) came to 6.4 ± 0.7 µM; in series [1] (setting [9]) it was 16 ± 3.2 µM.

Consider `CC1(C)C2CC(NCC(O)Cc3ccc(O)c(I)c3)C(C/C=C\CCCC(=O)O)C1C2` (stereo not drawn) [^127 I-PTA-OH], for which the IC50 in series [1] (setting [8]) amounted to 0.38 ± 0.05 µM. Regarding `CCCCCCCN[C@H]1CCC[C@H]1CCCCCCC(=O)O` (relative stereo) [13-cis-azaprostanoic acid, reference compound], the IC50 in series [1] (setting [9]) stood at 14.8 ± 2.2 µM.
